Laboratory results: ChEMBL document CHEMBL4811321, “Synthesis and biological evaluation of 3,4-dihydro-1H-[1,4] oxazepino [6,5,4-hi] indol-1-ones and 4,6-dihydrooxepino [5,4,3-cd] indol-1(3H)-ones as Mycobacterium tuberculosis inhibitors” (Bioorg Med Chem, 2021)
≈ marks a conversion by molar mass, not a printed value.

What was measured:
[1] = test system: Mycobacterium tuberculosis; assay: Antitubercular activity against Mycobacterium tuberculosis mc2 6230 assessed as inhibition of bacterial growth incubated for 7 days by microtiter plate assay; format: functional; settings: mc2 6230, 168 h, time 7 day
[2] = Displacement of UDP-fluorescein from Mycobacterium tuberculosis UDP-galactopyranose mutase by fluorescence polarization assay

Structure (SMILES)	MIC [1] [µg/mL]	Kd [2] [µM]
CCCCCCCc1cn(CC2Cc3cn(Cc4ccccc4)c4cccc(c34)C(=O)O2)nn1 (stereo not given)	> 100	–
COc1ccccc1-c1cn(CC2Cc3cn(Cc4ccccc4)c4cccc(c34)C(=O)O2)nn1 (stereo not given)	> 100	–
COc1cccc(SCC2Cc3cn(Cc4ccccc4)c4cccc(c34)C(=O)O2)c1 (stereo not given)	> 100	–
COc1ccc(/C=C2\Cn3cc(I)c4cccc(c43)C(=O)O2)cc1	> 100	–
O=C1OC(Cn2cc(-c3ccccc3F)nn2)Cc2cn(Cc3ccccc3)c3cccc1c23 (stereo not given)	> 100	–
COc1ccc(C#C/C=C2\Cn3cc(I)c4cccc(c43)C(=O)O2)cc1	0.2 (≈ 0.439 µM)	72.9
O=C1OC(Cn2cc(C3CC3)nn2)Cc2cn(Cc3ccccc3)c3cccc1c23 (stereo not given)	> 100	–
COc1ccc(-c2cn(CC3Cc4cn(Cc5ccccc5)c5cccc(c45)C(=O)O3)nn2)cc1 (stereo not given)	> 100	–
CCOC(=O)CCCC#C/C=C1\Cn2cc(I)c3cccc(c32)C(=O)O1	0.4 (≈ 0.863 µM)	–
O=C1O/C(=C/I)Cn2cc(I)c3cccc1c32	1.6 (≈ 3.55 µM)	138
COc1ccccc1SCC1Cc2cn(Cc3ccccc3)c3cccc(c23)C(=O)O1 (stereo not given)	> 100	–
O=C1OC(CI)Cc2cn(Cc3ccccc3)c3cccc1c23 (stereo not given)	12.5 (≈ 30 µM)	–
O=C1OC(Cn2cc(-c3ccc(F)cc3F)nn2)Cc2cn(Cc3ccccc3)c3cccc1c23 (stereo not given)	> 100	–
O=C1O/C(=C/C#Cc2ccccc2)Cn2cc(I)c3cccc1c32	0.4 (≈ 0.941 µM)	–
CN(Cc1cn(CC2Cc3cn(Cc4ccccc4)c4cccc(c34)C(=O)O2)nn1)S(C)(=O)=O (stereo not given)	> 100	–
O=C1OC(CSc2ccccc2)Cc2cn(Cc3ccccc3)c3cccc1c23 (stereo not given)	> 100	–
O=C1OC(Cn2cc(CCBr)nn2)Cc2cn(Cc3ccccc3)c3cccc1c23 (stereo not given)	25 (≈ 53.7 µM)	–
CCCCc1cn(CC2Cc3cn(Cc4ccccc4)c4cccc(c34)C(=O)O2)nn1 (stereo not given)	> 100	–
CC(C)CCc1cn(CC2Cc3cn(Cc4ccccc4)c4cccc(c34)C(=O)O2)nn1 (stereo not given)	> 100	–
CC(C)CCC#C/C=C1\Cn2cc(I)c3cccc(c32)C(=O)O1	0.2 (≈ 0.477 µM)	–
O=C1OC(Cn2cc(-c3ccccc3)nn2)Cc2cn(Cc3ccccc3)c3cccc1c23 (stereo not given)	> 100	–
CCOC(=O)CCCc1cn(CC2Cc3cn(Cc4ccccc4)c4cccc(c34)C(=O)O2)nn1 (stereo not given)	> 100	–
CCCCC#C/C=C1\Cn2cc(I)c3cccc(c32)C(=O)O1	0.4 (≈ 0.987 µM)	–
